Laboratory results from US7994320B2, “Narcistatin prodrugs” (priority 2002, dated 2011).

Tests used:
MCF-7 = assay: Human cancer cell line growth inhibition, breast MCF-7; assay type: cell-based
Description: (§1) Narciclasine cyclic phosphate prodrugs 3a-o were evaluated against a minipanel of human cancer cell lines and the murine P388 lymphocytic leukemia. The GI50 0.1-0.02 μg/ml strong activity range parallels that already reported for the parent, narciclasine (1). (Pettit, G. R.; Melody, N.; Herald, D. L. J. Org. Chem. 2001, 66, 2583-2587.)

SF 268 = assay: Human cancer cell line growth inhibition, CNS SF 268; assay type: cell-based
Description: as §1

KM20L2 = assay: Human cancer cell line growth inhibition, colon KM20L2; assay type: cell-based
Description: as §1

DU-145 = assay: Human cancer cell line growth inhibition, prostate DU-145; assay type: cell-based
Description: as §1

NCI-H460 = assay: Human cancer cell line growth inhibition, lung NCI-H460; assay type: cell-based
Description: as §1

BXPC-3 = assay: Human cancer cell line growth inhibition, pancreas BXPC-3; assay type: cell-based
Description: as §1

M5076 sarcoma = settings: U.S. National Cancer Institute research; cited from earlier work
Solubility in water = settings: solvent not stated
[1] = test system: P388 lymphocytic leukemia; settings: U.S. National Cancer Institute research; cited from earlier work
[2] = test system: Erlich asciter cancer cells; settings: cited from earlier work

Compound	GI50 Breast MCF-7 (MCF-7) [mg/L]	GI50 CNS SF 268 (SF 268) [mg/L]	GI50 Colon KM20L2 (KM20L2) [mg/L]	GI50 Prostate DU-145 (DU-145) [mg/L]	GI50 Lung-NSC NCI-H460 (NCI-H460) [mg/L]	GI50 Pancreas-a BXPC-3 (BXPC-3) [mg/L]	activity against in vivo growth of M5076 sarcoma (M5076 sarcoma)	solubility (Solubility in water)	activity against in vivo growth of P388 lymphocytic leukemia [1]	inhibition of protein synthesis [2]
O=C1N[C@@H]2C(=C[C@H](O)[C@H]3OP(=O)(O)O[C@H]32)c2cc3c(c(O)c21)OCO3.c1ccncc1 [Compound 3a, Pyridinium Narcistatin]	0.27	0.15	0.34	0.17	0.27	0.22	–	–	–	–
O=C1NC2C(=CC(O)C3OP(=O)([O-])OC23)c2cc3c(c(O)c21)OCO3.O=C1NC2C(=CC(O)C3OP(=O)([O-])OC23)c2cc3c(c(O)c21)OCO3.[Mn+2] (stereo not shown) [Compound 3j, Manganese Narcistatin]	0.07	0.04	0.13	0.034	0.15	0.049	–	–	–	–
C=C[C@@H]1CN2CC[C@@H]1C[C@H]2[C@@H](O)c1ccnc2ccc(OC)cc12.O=C1N[C@@H]2C(=C[C@H](O)[C@H]3OP(=O)(O)O[C@H]32)c2cc3c(c(O)c21)OCO3 [Compound 3k, Quinidinium Narcistatin]	0.5	0.25	0.58	0.22	0.77	0.31	–	–	–	–
C=C[C@@H]1CN2CC[C@@H]1C[C@@H]2[C@H](O)c1ccnc2ccc(OC)cc12.O=C1N[C@@H]2C(=C[C@H](O)[C@H]3OP(=O)(O)O[C@H]32)c2cc3c(c(O)c21)OCO3 [Compound 3l, Quininium Narcistatin]	0.12	0.045	0.12	0.013	0.17	0.051	–	–	–	–
C1COCCN1.O=C1N[C@@H]2C(=C[C@H](O)[C@H]3OP(=O)(O)O[C@H]32)c2cc3c(c(O)c21)OCO3 [Compound 3n, Morpholinium Narcistatin]	0.48	0.24	0.54	0.14	>1	0.25	–	–	–	–
O=C1N[C@@H]2C(=C[C@H](O)[C@@H](O)[C@H]2O)c2cc3c(c(O)c21)OCO3 [narciclasine (1), narciclasine]	–	–	–	–	–	–	active	sparingly soluble	active	inhibit protein synthesis
Calcium Narcistatin [Compound 3h]	0.059	0.031	0.059	0.0093	0.12	0.045	–	–	–	–
Cesium Narcistatin [Compound 3f]	0.62	0.33	0.66	0.13	>1	0.41	–	–	–	–
Imidazolium Narcistatin [Compound 3m]	0.9	0.38	>1	0.44	>1	0.45	–	–	–	–
Lithium Narcistatin [Compound 3c]	0.31	0.17	0.26	0.13	0.3	0.25	–	–	–	–
Magnesium Narcistatin [Compound 3g]	0.25	0.14	0.31	0.1	0.29	0.19	–	–	–	–
Narcistatin [Compound 3b]	0.35	0.22	0.53	0.16	0.47	0.33	–	–	–	–
Piperazinium Narcistatin [Compound 3o]	0.17	0.099	0.22	0.032	0.24	0.1	–	–	–	–
Potassium Narcistatin [Compound 3e]	0.4	0.19	0.56	0.26	0.67	0.36	–	–	–	–
Sodium Narcistatin [Compound 3d]	0.56	0.23	0.45	0.12	>1	0.32	–	–	–	–
Zinc Narcistatin [Compound 3i]	0.14	0.053	0.16	0.016	0.21	0.069	–	–	–	–
